Results as given in patent publication US9006487B2, “Amine-containing lipids and uses thereof” (Massachusetts Institute of Technology, priority 2005, dated 2015).

system: not listed separately; experiment: DNA delivery: raw luciferase expression (relative light units) of best-transfecting lipids; assay type: cell-based; conditions: lipid/DNA 10 w/w; 300 ng of DNA per well
Method: Raw values for luciferase expression (relative lights units) of best-transfecting lipids at lipid/DNA (w/w) ratios listed. 300 ng of DNA was added per well.

Raw values for luciferase expression	SMILES
2048655 relative lights units	CCCCCCCCCCCCCCNC(=O)CCN(C)CCCN(CCC(=O)NCCCCCCCCCCCCCC)CCC(=O)NCCCCCCCCCCCCCC [NF96]

same assay, conditions: lipid/DNA 15 w/w; 300 ng of DNA per well

Raw values for luciferase expression	SMILES
167043 relative lights units	CCCCCCCCCCCCCCNC(=O)CCN(C)CCCN(CCC(=O)NCCCCCCCCCCCCCC)CCC(=O)NCCCCCCCCCCCCCC [NF96]

system: cos-7 cells; experiment: DNA transfection: luciferase expression relative to Lipofectamine 2000; assay type: cell-based; conditions: lipid/DNA 2.5 w/w; 300 ng Luciferase DNA per well; luciferase assay after 48 hours
Summary of the method: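 Lipid/DNA complexes, 300 ng luciferase DNA per well at 2.5-25 w/w lipid:DNA, were formed in sodium acetate/Optimem and added to overnight-seeded cos-7 cells. Luciferase was measured by Bright-Glo luminescence after 48 hours and quantified against an enzyme standard curve. Values are expressed as % of Lipofectamine 2000 at 2.5 w/w.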

SMILES	Luciferase expression as a percentage of that achieved using Lipofectamine 2000
CCCCCCCCCCCCCCCOC(=O)CCN(CCCN(C)C)CCC(=O)OCCCCCCCCCCCCCCC [LG80]	2.2%
CCCCCCCCCCCCCCCOC(=O)CCN(CCO)CCN(CCC(=O)OCCCCCCCCCCCCCCC)CCC(=O)OCCCCCCCCCCCCCCC [LG109]	16.3%

same assay, conditions: lipid/DNA 2.5 w/w; 300 ng of DNA per well

SMILES	luciferase expression (second part of table, values relative to LIPO2000)
CCCCCCCCCCCCNC(=O)CCN(CCCN(CCC(=O)NCCCCCCCCCCCC)CCC(=O)NCCCCCCCCCCCC)CCC(=O)NCCCCCCCCCCCC [ND100]	45.7
CCCCCCCCCCCCCCNC(=O)CCN(C)CCCN(CCC(=O)NCCCCCCCCCCCCCC)CCC(=O)NCCCCCCCCCCCCCC [NF96]	221.5

same assay, conditions: lipid/DNA 5 w/w; 300 ng Luciferase DNA per well; luciferase assay after 48 hours

SMILES	Luciferase expression as a percentage of that achieved using Lipofectamine 2000
CCCCCCCCCCCCCCCOC(=O)CCN(CCCN(C)C)CCC(=O)OCCCCCCCCCCCCCCC [LG80]	11.9%
CCCCCCCCCCCCCCCOC(=O)CCN(CCO)CCN(CCC(=O)OCCCCCCCCCCCCCCC)CCC(=O)OCCCCCCCCCCCCCCC [LG109]	36.0%

same assay, conditions: lipid/DNA 5 w/w; 300 ng of DNA per well

SMILES	luciferase expression (second part of table, values relative to LIPO2000)
CCCCCCCCCCCCNC(=O)CCN(CCCN(CCC(=O)NCCCCCCCCCCCC)CCC(=O)NCCCCCCCCCCCC)CCC(=O)NCCCCCCCCCCCC [ND100]	48.0
CCCCCCCCCCCCCCNC(=O)CCN(C)CCCN(CCC(=O)NCCCCCCCCCCCCCC)CCC(=O)NCCCCCCCCCCCCCC [NF96]	44.3

same assay, conditions: lipid/DNA 10 w/w; 300 ng Luciferase DNA per well; luciferase assay after 48 hours

SMILES	Luciferase expression as a percentage of that achieved using Lipofectamine 2000
CCCCCCCCCCCCCCCOC(=O)CCN(CCCN(C)C)CCC(=O)OCCCCCCCCCCCCCCC [LG80]	19.8%
CCCCCCCCCCCCCCCOC(=O)CCN(CCO)CCN(CCC(=O)OCCCCCCCCCCCCCCC)CCC(=O)OCCCCCCCCCCCCCCC [LG109]	23.4%

same assay, conditions: lipid/DNA 10 w/w; 300 ng of DNA per well

SMILES	luciferase expression (second part of table, values relative to LIPO2000)
CCCCCCCCCCCCNC(=O)CCN(CCCN(CCC(=O)NCCCCCCCCCCCC)CCC(=O)NCCCCCCCCCCCC)CCC(=O)NCCCCCCCCCCCC [ND100]	20.8
CCCCCCCCCCCCCCNC(=O)CCN(C)CCCN(CCC(=O)NCCCCCCCCCCCCCC)CCC(=O)NCCCCCCCCCCCCCC [NF96]	0.2

same assay, conditions: lipid/DNA 15 w/w; 300 ng Luciferase DNA per well; luciferase assay after 48 hours

SMILES	Luciferase expression as a percentage of that achieved using Lipofectamine 2000
CCCCCCCCCCCCCCCOC(=O)CCN(CCCN(C)C)CCC(=O)OCCCCCCCCCCCCCCC [LG80]	31.3%
CCCCCCCCCCCCCCCOC(=O)CCN(CCO)CCN(CCC(=O)OCCCCCCCCCCCCCCC)CCC(=O)OCCCCCCCCCCCCCCC [LG109]	37.9%

same assay, conditions: lipid/DNA 15 w/w; 300 ng of DNA per well

SMILES	luciferase expression (second part of table, values relative to LIPO2000)
CCCCCCCCCCCCNC(=O)CCN(CCCN(CCC(=O)NCCCCCCCCCCCC)CCC(=O)NCCCCCCCCCCCC)CCC(=O)NCCCCCCCCCCCC [ND100]	2.7
CCCCCCCCCCCCCCNC(=O)CCN(C)CCCN(CCC(=O)NCCCCCCCCCCCCCC)CCC(=O)NCCCCCCCCCCCCCC [NF96]	0.1

same assay, conditions: lipid/DNA 20 w/w; 300 ng Luciferase DNA per well; luciferase assay after 48 hours

SMILES	Luciferase expression as a percentage of that achieved using Lipofectamine 2000
CCCCCCCCCCCCCCCOC(=O)CCN(CCCN(C)C)CCC(=O)OCCCCCCCCCCCCCCC [LG80]	21.9%
CCCCCCCCCCCCCCCOC(=O)CCN(CCO)CCN(CCC(=O)OCCCCCCCCCCCCCCC)CCC(=O)OCCCCCCCCCCCCCCC [LG109]	25.7%

same assay, conditions: lipid/DNA 25 w/w; 300 ng Luciferase DNA per well; luciferase assay after 48 hours

SMILES	Luciferase expression as a percentage of that achieved using Lipofectamine 2000
CCCCCCCCCCCCCCCOC(=O)CCN(CCCN(C)C)CCC(=O)OCCCCCCCCCCCCCCC [LG80]	17.4%
CCCCCCCCCCCCCCCOC(=O)CCN(CCO)CCN(CCC(=O)OCCCCCCCCCCCCCCC)CCC(=O)OCCCCCCCCCCCCCCC [LG109]	34.5%

same assay, conditions: replicate set, 1st column; no head printed (2.5 w/w by the raw values)

SMILES	luciferase expression, second set of columns (replicate set of data)
CCCCCCCCCCCCNC(=O)CCN(CCCN(CCC(=O)NCCCCCCCCCCCC)CCC(=O)NCCCCCCCCCCCC)CCC(=O)NCCCCCCCCCCCC [ND100]	62.6
CCCCCCCCCCCCCCNC(=O)CCN(C)CCCN(CCC(=O)NCCCCCCCCCCCCCC)CCC(=O)NCCCCCCCCCCCCCC [NF96]	79.4

same assay, conditions: replicate set, 2nd column; no head printed (5 w/w by the raw values)

SMILES	luciferase expression, second set of columns (replicate set of data)
CCCCCCCCCCCCNC(=O)CCN(CCCN(CCC(=O)NCCCCCCCCCCCC)CCC(=O)NCCCCCCCCCCCC)CCC(=O)NCCCCCCCCCCCC [ND100]	37.4
CCCCCCCCCCCCCCNC(=O)CCN(C)CCCN(CCC(=O)NCCCCCCCCCCCCCC)CCC(=O)NCCCCCCCCCCCCCC [NF96]	40.8

same assay, conditions: replicate set, 3rd column; no head printed (10 w/w by the raw values)

SMILES	luciferase expression, second set of columns (replicate set of data)
CCCCCCCCCCCCNC(=O)CCN(CCCN(CCC(=O)NCCCCCCCCCCCC)CCC(=O)NCCCCCCCCCCCC)CCC(=O)NCCCCCCCCCCCC [ND100]	2.5
CCCCCCCCCCCCCCNC(=O)CCN(C)CCCN(CCC(=O)NCCCCCCCCCCCCCC)CCC(=O)NCCCCCCCCCCCCCC [NF96]	29.2

same assay, conditions: replicate set, 4th column; no head printed (15 w/w by the raw values)

SMILES	luciferase expression, second set of columns (replicate set of data)
CCCCCCCCCCCCNC(=O)CCN(CCCN(CCC(=O)NCCCCCCCCCCCC)CCC(=O)NCCCCCCCCCCCC)CCC(=O)NCCCCCCCCCCCC [ND100]	0.6
CCCCCCCCCCCCCCNC(=O)CCN(C)CCCN(CCC(=O)NCCCCCCCCCCCCCC)CCC(=O)NCCCCCCCCCCCCCC [NF96]	2.4

system: renilla and firefly luciferases; experiment: siRNA delivery: reporter-protein (renilla luciferase) knockdown relative to Lipofectamine 2000, firefly luciferase as viability control; assay type: cell-based; conditions: lipid/RNA 2.5 w/w; 50 ng of siRNA per well
Method: Reporter-protein knockdown achieved by the top transfecting lipids relative to Lipofectamine™ 2000 (where negative values indicate improved knockdown). The assay accounts for toxicity, monitoring expression of both renilla and firefly luciferases, where the latter serves as viability control. For each lipid, 50 ng of siRNA was added per well at specific lipid/RNA w/w ratios (from top to bottom: 2.5, 5, 10, 15).

SMILES	Reporter-protein knockdown relative to Lipofectamine 2000 (negative values indicate improved knockdown)
CCCCCCCCCCCCCCCOC(=O)CCN(CCCN(C)C)CCC(=O)OCCCCCCCCCCCCCCC [LG80]	2.007
CCCCCCCCCCCCCCCOC(=O)CCN(CCO)CCN(CCC(=O)OCCCCCCCCCCCCCCC)CCC(=O)OCCCCCCCCCCCCCCC [LG109]	55.7409
CCCCCCCCCCCCNC(=O)CCN(CCCN(CCC(=O)NCCCCCCCCCCCC)CCC(=O)NCCCCCCCCCCCC)CCC(=O)NCCCCCCCCCCCC [ND100]	10.88
CCCCCCCCCCCCCCNC(=O)CCN(C)CCCN(CCC(=O)NCCCCCCCCCCCCCC)CCC(=O)NCCCCCCCCCCCCCC [NF96]	−6.262

same assay, conditions: lipid/RNA 5 w/w; 50 ng of siRNA per well

SMILES	Reporter-protein knockdown relative to Lipofectamine 2000 (negative values indicate improved knockdown)
CCCCCCCCCCCCCCCOC(=O)CCN(CCCN(C)C)CCC(=O)OCCCCCCCCCCCCCCC [LG80]	−9.09
CCCCCCCCCCCCCCCOC(=O)CCN(CCO)CCN(CCC(=O)OCCCCCCCCCCCCCCC)CCC(=O)OCCCCCCCCCCCCCCC [LG109]	43.9
CCCCCCCCCCCCNC(=O)CCN(CCCN(CCC(=O)NCCCCCCCCCCCC)CCC(=O)NCCCCCCCCCCCC)CCC(=O)NCCCCCCCCCCCC [ND100]	−7.546
CCCCCCCCCCCCCCNC(=O)CCN(C)CCCN(CCC(=O)NCCCCCCCCCCCCCC)CCC(=O)NCCCCCCCCCCCCCC [NF96]	−2.035

same assay, conditions: lipid/RNA 10 w/w; 50 ng of siRNA per well

SMILES	Reporter-protein knockdown relative to Lipofectamine 2000 (negative values indicate improved knockdown)
CCCCCCCCCCCCCCCOC(=O)CCN(CCCN(C)C)CCC(=O)OCCCCCCCCCCCCCCC [LG80]	−15.9409
CCCCCCCCCCCCCCCOC(=O)CCN(CCO)CCN(CCC(=O)OCCCCCCCCCCCCCCC)CCC(=O)OCCCCCCCCCCCCCCC [LG109]	−5.231
CCCCCCCCCCCCNC(=O)CCN(CCCN(CCC(=O)NCCCCCCCCCCCC)CCC(=O)NCCCCCCCCCCCC)CCC(=O)NCCCCCCCCCCCC [ND100]	−21.4945
CCCCCCCCCCCCCCNC(=O)CCN(C)CCCN(CCC(=O)NCCCCCCCCCCCCCC)CCC(=O)NCCCCCCCCCCCCCC [NF96]	63.2

same assay, conditions: lipid/RNA 15 w/w; 50 ng of siRNA per well

SMILES	Reporter-protein knockdown relative to Lipofectamine 2000 (negative values indicate improved knockdown)
CCCCCCCCCCCCCCCOC(=O)CCN(CCCN(C)C)CCC(=O)OCCCCCCCCCCCCCCC [LG80]	−21.0263
CCCCCCCCCCCCCCCOC(=O)CCN(CCO)CCN(CCC(=O)OCCCCCCCCCCCCCCC)CCC(=O)OCCCCCCCCCCCCCCC [LG109]	−11.1255
CCCCCCCCCCCCNC(=O)CCN(CCCN(CCC(=O)NCCCCCCCCCCCC)CCC(=O)NCCCCCCCCCCCC)CCC(=O)NCCCCCCCCCCCC [ND100]	−8.3303
CCCCCCCCCCCCCCNC(=O)CCN(C)CCCN(CCC(=O)NCCCCCCCCCCCCCC)CCC(=O)NCCCCCCCCCCCCCC [NF96]	90.8142
